Values joined by “and” are separate entries in the source; they are usually repeats but may differ in a detail not shown here. Equal values may be shown once. One block for each compound: values may come before it.
Tested on: 636577-100-R-J1-PDC complex spheroid viability
Experiment: Anticancer human tumor 636577-100-R-J1-PDC patient-derived endometrial adenocarcinoma cell line growth inhibition [GQUAD]
Details: for viability, T/C: stronger effect = lower value
Excerpt: DNA G-quadruplex Stabilizer Agents in Combinations in Complex Spheroids
A high-throughput screen of multi-cell type tumor spheroids was designed to identify active combinations of DNA G-quadruplex stabilizer agents and targeted small molecules. Complex spheroids include a stromal component modeled by human endothelial cells (HUVEC) and fibroblasts modeled by human mesenchymal stem cells (MSCs). The concentration ranges selected for each drug and investigational agent were based upon clinically achievable concentrations if the clinical Cmax of the agent was known.
Compounds. The drugs and investigational agents: pidnarulex (CX-5461; NSC782164), APTO-253 (NSC789042), BRACO-19 (NSC847499), peposertib (NSC802822), ceralasertib (NSC780249), elimusertib (NSC800525), camonsertib (NSC841442), AZD-1390 (NSC803789), olaparib (NSC753686), talazoparib (NSC767125), ART-558 (NSC835418), sotorasib (NSC818433), MRTX-1133 (NSC836407), SN-38 (NSC673596), topotecan (NSC609699), etoposide (NSC141540), doxorubicin (NSC123127), gemcitabine (NSC613327), 5-fluorouracil (NSC19893), paclitaxel (NSC125973), vemurafenib (NSC761431), panobinostat (NSC761190), R-306465 (JNJ-16241199; NSC773264), adavosertib (NSC754352), TP-3654 (NSC805149), carboplatin (NSC241240), KSQ-4279 (NSC840948), and staurosporine (NSC755774) were obtained from the National Cancer Institute (NCI) Developmental Therapeutics Program Chemical Repository (34). The FDA-approved anticancer drug set is available from the NCI Developmental Therapeutics Program. […] The stock solutions were prepared in dimethyl sulfoxide (DMSO, Sigma-Aldrich, St. Louis, MO, cat. D2650) at 800-fold the tested concentration and stored at -70 degrees C prior to their use. All drugs and investigational agents were tested over a range starting from a high concentration at or near the clinical Cmax and decreasing in half-log increments. If the clinical Cmax for an agent had not been determined, the highest concentration tested was 10 microM.
2.3 Cell Culture. All cells were maintained in an incubator at 37 degrees C and 5% CO2 with 95% humidity. The PDC lines were cultured according to standard operating procedures established by the NCI PDMR. All PDCs were thawed and cultured in Matrigel-coated flasks prepared with a working solution of 1X Ham's F-12 nutrient mix, without supplementation (Invitrogen, cat. 11765054), 100 U/mL penicillin-streptomycin (Invitrogen, cat. 15140122), and 2.5% Matrigel (Corning Inc., cat. 354248) for the first three passages. The 857933-349-R-J2-PDC line was cultured in 6C/Colon 1B media, which includes advanced DMEM/F-12 (Thermo Fisher Scientific, cat. 12634028), 10 mM HEPES (Thermo Fisher Scientific, cat. 15630080), 1X GlutaMAX supplement (Thermo Fisher Scientific, cat. 35050061), 0.1 mg/mL primocin (InvivoGen, cat. ant-pm-2), 10% defined fetal bovine serum, heat inactivated (HyClone Laboratories Inc., cat. SH30070.03HI), 50% L-WRN conditioned media (ATCC, cat. CRL-3276), 1.25 mM N-Acetyl-L-cysteine (Sigma-Aldrich, cat. A9165), 10 mM nicotinamide (Sigma-Aldrich, cat. N0636), 1X B-27 supplement (Thermo Fisher Scientific, cat. 17504044), 1X N-2 supplement (Thermo Fisher Scientific, cat. 17502048), 10 microM Y-27632 dihydrochloride (Tocris Bioscience, cat. 1254), and 50 ng/mL human EGF recombinant protein (Thermo Fisher Scientific, cat. PHG0311). The 485176-168-R4-J1-PDC line was cultured in Panc media, which includes all 6C/Colon 1B media components plus 100 ng/mL human FGF-10 (Thermo Fisher Scientific, cat. 100-26), 500 nM SB-431542 (Selleckchem, cat. S1067), and gastrin (Tocris, cat. 3006).
[…]
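Note: viability read after seven days of drug exposure.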
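Throughout, for viability, T/C: luminescence signal used as a proxy for viable cells; 100% = DMSO vehicle control wells.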

IC50 (curve of compound): 81.9 nM and 76.2 nM and 64 nM
SMILES: COc1cc(C2c3cc4c(cc3C(OC3OC5COC(C)OC5C(O)C3O)C3COC(=O)C23)OCO4)cc(OC)c1O (configuration not stated)
viability, T/C (compound 0.0316 µM): 80.7% and 81.6% and 73.5% | viability, T/C (compound 0.1 µM): 43.7% and 40.4% and 34.9% | viability, T/C (compound 0.316 µM): 24.3% and 21.7% and 21.6% | viability, T/C (compound 1 µM): 18.6% and 19% and 17.9% | viability, T/C (compound 3.16 µM): 15.4% and 13.9% and 16.5% | viability, T/C (compound 10 µM): 13% and 12.7% and 13.3%

IC50 (curve of compound): 1580 nM and 1970 nM and 1170 nM
SMILES: COc1ccc([C@@H](O)c2cc(-c3ncnc4cc(N5CCOCC5)ccc34)c(F)cc2Cl)nn1
viability, T/C (compound 0.0316 µM): 93% and 95.4% and 33.8% | viability, T/C (compound 0.1 µM): 96.2% and 61.9% and 97.4% | viability, T/C (compound 0.316 µM): 86.4% and 88.9% and 65.4% | viability, T/C (compound 1 µM): 55.2% and 54.6% and 49.7% | viability, T/C (compound 3.16 µM): 42.5% and 43.1% and 36.6% | viability, T/C (compound 10 µM): 28.1% and 22.5% and 25.5%

IC50 (curve of compound): < 31.6 nM
SMILES: COc1cccc2c1C(=O)c1c(O)c3c(c(O)c1C2=O)CC(O)(C(=O)CO)CC3OC1CC(N)C(O)C(C)O1 (configuration not stated)
viability, T/C (compound 0.0316 µM): 28.9% and 27% and 34.2% | viability, T/C (compound 0.1 µM): 18.4% and 18.1% and 16.8% | viability, T/C (compound 0.316 µM): 15.4% and 13.9% and 14.7% | viability, T/C (compound 1 µM): 7.51% and 9.99% and 11.6% | viability, T/C (compound 3.16 µM): 0.17% and 0.21% and 0.44% | viability, T/C (compound 10 µM): 0.53% and 0.32% and 0.4%

IC50 (curve of compound): > 10000 nM
SMILES: COc1ncnc(C2CC2)c1-c1ncc2cnn(Cc3ccc(-c4nc(C(F)(F)F)cn4C(C)C)cc3)c2n1
viability, T/C (compound 0.0316 µM): 72.1% and 66.5% and 79.3% | viability, T/C (compound 0.1 µM): 70% and 60.2% and 82.1% | viability, T/C (compound 0.316 µM): 54.8% and 66.5% and 102% | viability, T/C (compound 1 µM): 72.7% and 57.8% and 88.1% | viability, T/C (compound 3.16 µM): 64.7% and 64.6% and 68% | viability, T/C (compound 10 µM): 59.5% and 68.5% and 65.4%

IC50 (compound alone, run of 03/18/2024): > 10000 nM and 3070 nM and 3210 nM | IC50 (compound alone, run of 03/26/2024): 2.16 µM [middle of 4 runs]
SMILES: Cc1[nH]c2ccc(F)cc2c1-c1nc2c3cccnc3c3ncccc3c2[nH]1
viability, T/C (compound 1 µM): 86.1% [middle of 9 runs] | viability, T/C (compound 3.16 µM): 38.6% [middle of 9 runs]

IC50 (curve of compound): 4.63 nM and 4.41 nM and 10.4 nM
SMILES: Cc1[nH]c2ccccc2c1CCNCc1ccc(/C=C/C(=O)NO)cc1
viability, T/C (compound 0.000999 µM): 80% and 86.3% and 79% | viability, T/C (compound 0.00316 µM): 57.6% and 53.8% and 75.6% | viability, T/C (compound 0.00999 µM): 34.1% and 38.9% and 51.3% | viability, T/C (compound 0.0316 µM): 15.3% and 17.2% and 16.4% | viability, T/C (compound 0.0999 µM): 6.66% and 8% and 7.02% | viability, T/C (compound 0.316 µM): 9.32% and 8.7% and 9.38%

IC50 (curve of compound): > 10000 nM and 9350 nM
SMILES: Cc1cccc(N(C)C(=O)C2C(O)CCN2c2nc(C)cc(C(F)(F)F)c2C#N)c1 (configuration not stated)
viability, T/C (compound 0.0316 µM): 55.9% and 99.9% and 91.4% | viability, T/C (compound 0.1 µM): 87% and 96.7% and 33.3% | viability, T/C (compound 0.316 µM): 95.6% and 94.5% and 96% | viability, T/C (compound 1 µM): 75.2% and 81.8% and 94.4% | viability, T/C (compound 3.16 µM): 76% and 84.7% and 55.7% | viability, T/C (compound 10 µM): 74.4% and 87.5% and 49.5%

SMILES: Cc1cnc(CNC(=O)c2c(=O)c3ccc(N4CCCN(C)CC4)nc3n3c2sc2ccccc23)cn1
viability, T/C (compound 0.0316 µM): 50.9% [middle of 10 runs] | viability, T/C (compound 0.1 µM): 29.8% [middle of 10 runs] | viability, T/C (compound 0.316 µM): 26.9% [middle of 10 runs] | viability, T/C (compound 1 µM): 24.9% [middle of 10 runs] | viability, T/C (compound 3.16 µM): 22.2% [middle of 10 runs] | viability, T/C (compound 10 µM): 20.8% [middle of 10 runs]

IC50 (curve of compound): 83.4 nM and 55.7 nM and 74.1 nM
SMILES: Cn1ncnc1[C@H]1c2n[nH]c(=O)c3cc(F)cc(c23)N[C@@H]1c1ccc(F)cc1
viability, T/C (compound 0.000999 µM): 116% and 71.8% and 77.3% | viability, T/C (compound 0.00316 µM): 99% and 81.1% and 72.7% | viability, T/C (compound 0.00999 µM): 94.9% and 91.4% and 85.6% | viability, T/C (compound 0.0316 µM): 69.3% and 56% and 68.8% | viability, T/C (compound 0.0999 µM): 44.9% and 52.2% and 43.4% | viability, T/C (compound 0.316 µM): 29.7% and 35.6% and 29.1%

IC50 (curve of compound): < 31.6 nM
SMILES: Nc1ccn(C2OC(CO)C(O)C2(F)F)c(=O)n1 (configuration not stated)
viability, T/C (compound 0.0316 µM): 15% and 15.2% | viability, T/C (compound 0.1 µM): 14.2% and 11.3% | viability, T/C (compound 0.316 µM): 17.7% and 13.5% | viability, T/C (compound 1 µM): 16.3% and 13.1% | viability, T/C (compound 3.16 µM): 13.8% and 14.3% | viability, T/C (compound 10 µM): 14.2% and 11%

IC50 (curve of compound): < 31.6 nM and 34.8 nM
SMILES: O=C(NO)c1cnc(N2CCN(S(=O)(=O)c3ccc4ccccc4c3)CC2)nc1
viability, T/C (compound 0.0316 µM): 37.6% and 34.2% and 52.9% | viability, T/C (compound 0.1 µM): 16.6% and 16.8% and 20.5% | viability, T/C (compound 0.316 µM): 7.21% and 7.67% and 7.55% | viability, T/C (compound 1 µM): 5.31% and 5.87% and 4.07% | viability, T/C (compound 3.16 µM): 0.18% and 0.1% and 0.17% | viability, T/C (compound 10 µM): 0.11% (2×) and 0.08%

IC50 (curve of compound): 2510 nM and 2430 nM
SMILES: O=C(c1cc(Cc2n[nH]c(=O)c3ccccc23)ccc1F)N1CCN(C(=O)C2CC2)CC1
viability, T/C (compound 0.0316 µM): 91.1% and 68.5% | viability, T/C (compound 0.1 µM): 89.5% and 65.9% | viability, T/C (compound 0.316 µM): 96.8% and 82.5% | viability, T/C (compound 1 µM): 62.5% and 63.3% | viability, T/C (compound 3.16 µM): 56.2% and 45.9% | viability, T/C (compound 10 µM): 37.6% and 29%

IC50 (curve of compound): 2530 nM and 5590 nM
SMILES: O=c1[nH]cc(F)c(=O)[nH]1
viability, T/C (compound 0.0316 µM): 102% and 99.7% | viability, T/C (compound 0.1 µM): 85% and 68.9% | viability, T/C (compound 0.316 µM): 101% and 89.5% | viability, T/C (compound 1 µM): 76.2% and 91.4% | viability, T/C (compound 3.16 µM): 44.2% and 71% | viability, T/C (compound 10 µM): 24.7% and 28.6%

From PubChem BioAssay AID2060504 (Molecular Pharmacology Branch, DTP, NCI, 2025)
